Source: ChEMBL document CHEMBL4483862, “Open-source discovery of chemical leads for next-generation chemoprotective antimalarials” (2018)

System: Plasmodium berghei
Experiment: Luciferase/luciferin-expressing antifolate-resistant parasites were used to infect a culture of HepG2 cells that were pre-incubated with compounds. Infected hepatocytes emit light due to the luciferase reaction. Assay results are presented as the percent inhibition of light emission compared to control. […]
Format: functional
Settings: sporozoite; for IC90: read-out: LUCIFERASE INFECTION ASSAY - IC90

Row | SMILES | IC90 [µM] | also measured
1 | O=C1c2n[nH]c(-c3ccccc3O)c2C(c2ccccc2F)N1Cc1ccco1 (configuration not stated) | > 8.47 | IC50 (FFLUC_HILL_SLOPE 2.17, FFLUC_R_SQUARED 0.481, read-out: LUCIFERASE INFECTION ASSAY - IC50): > 8.47 µM
2 | O=C(O)c1cnc2cc(Cl)cc(Cl)c2c1O | > 12.8 | IC50 (FFLUC_HILL_SLOPE 2.26, FFLUC_R_SQUARED 0.266, PBLUC_HILL_SLOPE 1.77, PBLUC_R_SQUARED 0.584, read-out: LUCIFERASE INFECTION ASSAY - IC50): 8.35 µM
3 | CN(c1ccccc1)c1cc(C(=O)Nc2ccccc2)ncn1 | 0.681 | IC50 (FFLUC_HILL_SLOPE 2.25, FFLUC_R_SQUARED 0.879, PBLUC_HILL_SLOPE 0.724, PBLUC_R_SQUARED 0.686, read-out: LUCIFERASE INFECTION ASSAY - IC50): 0.0327 µM
4 | COc1ccccc1-n1nnnc1SCC(O)Cn1c2ccccc2c2ccccc21 (configuration not stated) | > 10 | IC50 (FFLUC_HILL_SLOPE 2.23, FFLUC_R_SQUARED 0.596, PBLUC_HILL_SLOPE 13.3, PBLUC_R_SQUARED 0.223, read-out: LUCIFERASE INFECTION ASSAY - IC50): 9.95 µM
5 | Cc1ccc2c(c1)NC(C)c1ccccc1O2 (configuration not stated) | > 10 | IC50 (FFLUC_HILL_SLOPE 2.08, FFLUC_R_SQUARED 0.224, HEPG2TOX_HILL_SLOPE 6.95, HEPG2TOX_R_SQUARED 0.413, PBLUC_HILL_SLOPE 13.7, PBLUC_R_SQUARED 0.727, read-out: LUCIFERASE INFECTION ASSAY - IC50): 8.91 µM
6 | CN1/C(=C\C(=O)CCCSc2nnc(-c3ccccc3)n2N)C(C)(C)c2ccccc21 | > 10 | IC50 (FFLUC_HILL_SLOPE 2.28, FFLUC_R_SQUARED 0.541, HEPG2TOX_HILL_SLOPE 7.74, HEPG2TOX_R_SQUARED 0.566, PBLUC_HILL_SLOPE 1.71, PBLUC_R_SQUARED 0.591, read-out: LUCIFERASE INFECTION ASSAY - IC50): 3.64 µM
7 | Cc1[nH]c2ccccc2c1C1=NNC(=NCc2ccc3c(c2)OCO3)SC1 | > 10 | IC50 (FFLUC_HILL_SLOPE 2.18, FFLUC_R_SQUARED 0.288, PBLUC_HILL_SLOPE 2.54, PBLUC_R_SQUARED 0.596, read-out: LUCIFERASE INFECTION ASSAY - IC50): 4.55 µM
8 | Cc1cc(C(=O)C(C)OC(=O)c2ccc(NS(=O)(=O)c3ccc4c(c3)OCCO4)cc2)c(C)n1-c1ccc(Cl)cc1 (configuration not stated) | > 10 | IC50 (FFLUC_HILL_SLOPE 2.2, FFLUC_R_SQUARED 0.531, HEPG2TOX_HILL_SLOPE 0.947, HEPG2TOX_R_SQUARED 0.641, PBLUC_HILL_SLOPE 4.36, PBLUC_R_SQUARED 0.544, read-out: LUCIFERASE INFECTION ASSAY - IC50): 6.62 µM
9 | O=C(Nc1cc(S(=O)(=O)c2ccccc2)cs1)c1cccc(Cl)c1 | > 8.73 | IC50 (FFLUC_HILL_SLOPE 2.16, FFLUC_R_SQUARED 0.469, read-out: LUCIFERASE INFECTION ASSAY - IC50): > 8.73 µM
10 | CCOc1ncccc1C(=O)Nc1cc(S(=O)(=O)N2CCOCC2)ccc1Oc1ccccc1 | > 10 | IC50 (FFLUC_HILL_SLOPE 2.19, FFLUC_R_SQUARED 0.739, read-out: LUCIFERASE INFECTION ASSAY - IC50): > 10 µM
11 | CN(C)CCNCCCOc1ccc(C(C)(C)c2ccccc2)cc1 | > 10 | IC50 (FFLUC_HILL_SLOPE 2.11, FFLUC_R_SQUARED 0.273, PBLUC_HILL_SLOPE 1.18, PBLUC_R_SQUARED 0.227, read-out: LUCIFERASE INFECTION ASSAY - IC50): 5.92 µM
12 | O=C1/C(=C/c2ccc(-n3nncc3C34CC5CC(CC(C5)C3)C4)cc2)CCC/C1=C\c1ccc(-n2nncc2C23CC4CC(CC(C4)C2)C3)cc1 | 4.22 | IC50 (FFLUC_HILL_SLOPE 2.2, FFLUC_R_SQUARED 0.872, HEPG2TOX_HILL_SLOPE 3.7, HEPG2TOX_R_SQUARED 0.967, PBLUC_HILL_SLOPE 5.71, PBLUC_R_SQUARED 0.867, read-out: LUCIFERASE INFECTION ASSAY - IC50): 2.87 µM
13 | COc1ccc2c(CC(=O)N(c3cc(C)cc(C)c3)c3nc(-c4ccc(Br)cc4)cs3)coc2c1 | > 10 | IC50 (FFLUC_HILL_SLOPE 2.23, FFLUC_R_SQUARED 0.6, read-out: LUCIFERASE INFECTION ASSAY - IC50): > 10 µM
14 | CCCN(CCC)S(=O)(=O)c1ccc(-n2ncc(Cl)c(Cl)c2=O)cc1 | 2.67 | IC50 (FFLUC_HILL_SLOPE 2.22, FFLUC_R_SQUARED 0.495, HEPG2TOX_HILL_SLOPE 4.03, HEPG2TOX_R_SQUARED 0.969, PBLUC_HILL_SLOPE 5.8, PBLUC_R_SQUARED 0.662, read-out: LUCIFERASE INFECTION ASSAY - IC50): 1.83 µM
15 | CC1Cc2cc(C3=NNC(=NC4CC4)SC3)ccc2N1S(C)(=O)=O (configuration not stated) | 1.38 | IC50 (FFLUC_HILL_SLOPE 2.25, FFLUC_R_SQUARED 0.383, HEPG2TOX_HILL_SLOPE 1.12, HEPG2TOX_R_SQUARED 0.483, PBLUC_HILL_SLOPE 1.74, PBLUC_R_SQUARED 0.672, read-out: LUCIFERASE INFECTION ASSAY - IC50): 0.197 µM
16 | Cc1onc(-c2c(Cl)cccc2Cl)c1NC(=O)Nc1cscc1S(=O)(=O)C(C)C | > 6.96 | IC50 (FFLUC_HILL_SLOPE 2.28, FFLUC_R_SQUARED 0.234, read-out: LUCIFERASE INFECTION ASSAY - IC50): > 6.96 µM

Row | SMILES | IC90 [µM] | also measured
17 | C=CCN(c1ccccc1)S(=O)(=O)c1ccc(Cl)c(C(=O)Nc2ccc(N(c3ccccc3)C(C)C)cc2)c1 | 8.36 | IC50 (FFLUC_HILL_SLOPE 2.09, FFLUC_R_SQUARED 0.761, HEPG2TOX_HILL_SLOPE 2.29, HEPG2TOX_R_SQUARED 0.839, PBLUC_HILL_SLOPE 16.1, PBLUC_R_SQUARED 0.248, read-out: LUCIFERASE INFECTION ASSAY - IC50): 7.29 µM
18 | CCc1c(C(=O)/C=C/c2cccc(C#N)c2)oc2ccccc12 | 9.02 | IC50 (FFLUC_HILL_SLOPE 2.17, FFLUC_R_SQUARED 0.174, HEPG2TOX_HILL_SLOPE 14.7, HEPG2TOX_R_SQUARED 0.793, PBLUC_HILL_SLOPE 2.78, PBLUC_R_SQUARED 0.439, read-out: LUCIFERASE INFECTION ASSAY - IC50): 4.09 µM
19 | Cc1nn(-c2ccccc2)c2nc(-c3cccs3)cc(C(=O)N3CCc4ccccc43)c12 | > 10 | IC50 (FFLUC_HILL_SLOPE 2.26, FFLUC_R_SQUARED 0.632, PBLUC_HILL_SLOPE 0.862, PBLUC_R_SQUARED 0.727, read-out: LUCIFERASE INFECTION ASSAY - IC50): 4.63 µM
20 | CC(C)CN1/C(=C\c2cccc3[nH]ccc23)C(=O)c2ccccc2S1(=O)=O | > 8.67 | IC50 (FFLUC_HILL_SLOPE 2.19, FFLUC_R_SQUARED 0.818, HEPG2TOX_HILL_SLOPE 2.77, HEPG2TOX_R_SQUARED 0.93, read-out: LUCIFERASE INFECTION ASSAY - IC50): > 8.67 µM
21 | COc1ccc(-c2nnc(SCn3nnc4ccccc4c3=O)n2-c2ccccc2C(C)C)cc1 | > 10 | IC50 (FFLUC_HILL_SLOPE 2.15, FFLUC_R_SQUARED 0.39, read-out: LUCIFERASE INFECTION ASSAY - IC50): > 10 µM
22 | COC(=O)C1=C2N(C)c3ccccc3N2C(Nc2ccc(C)cc2)=NC1C(F)(F)F.Cc1ccc(C)cc1 (configuration not stated) | > 10 | IC50 (FFLUC_HILL_SLOPE 2.2, FFLUC_R_SQUARED 0.697, HEPG2TOX_HILL_SLOPE 5.36, HEPG2TOX_R_SQUARED 0.5, PBLUC_HILL_SLOPE 4.61, PBLUC_R_SQUARED 0.0573, read-out: LUCIFERASE INFECTION ASSAY - IC50): 7.42 µM
23 | Cc1cccc(-c2nn(-c3ccccc3)cc2/C=C2\CCn3c2nc2cc(Cl)ccc2c3=O)c1 | > 10 | IC50 (FFLUC_HILL_SLOPE 2.22, FFLUC_R_SQUARED 0.239, read-out: LUCIFERASE INFECTION ASSAY - IC50): > 10 µM
24 | Cc1cc(/C=N/Nc2nc3ccccc3[nH]2)c(C)n1-c1ccc(Cl)c(C(F)(F)F)c1 | 4.05 | IC50 (FFLUC_HILL_SLOPE 2.14, FFLUC_R_SQUARED 0.676, PBLUC_HILL_SLOPE 2.82, PBLUC_R_SQUARED 0.68, read-out: LUCIFERASE INFECTION ASSAY - IC50): 1.86 µM
25 | Fc1ccc(CNc2n[nH]c(=S)s2)cc1 | > 13.7 | IC50 (FFLUC_HILL_SLOPE 2.08, FFLUC_R_SQUARED 0.432, read-out: LUCIFERASE INFECTION ASSAY - IC50): > 13.7 µM
26 | CCSC1=N/C(=C\c2cc(C(C)(C)C)c(O)c(C(C)(C)C)c2)C(=O)S1 | > 8.74 | IC50 (FFLUC_HILL_SLOPE 2.27, FFLUC_R_SQUARED 0.423, read-out: LUCIFERASE INFECTION ASSAY - IC50): > 8.74 µM
27 | Cc1ccc(OCCOC(=O)c2cc(=O)[nH]c3ccccc23)cc1 | > 10 | IC50 (FFLUC_HILL_SLOPE 2.13, FFLUC_R_SQUARED 0.116, read-out: LUCIFERASE INFECTION ASSAY - IC50): > 10 µM
28 | CN(C)c1ccc(/C=C(\C#N)C(=O)c2ccc(-n3nncc3C34CC5CC(CC(C5)C3)C4)cc2)cc1 | > 10 | IC50 (FFLUC_HILL_SLOPE 2.12, FFLUC_R_SQUARED 0.418, PBLUC_HILL_SLOPE 11.3, PBLUC_R_SQUARED 0.267, read-out: LUCIFERASE INFECTION ASSAY - IC50): > 10 µM
29 | Nc1c(C(=O)c2ccc(Cl)cc2)sc(NCc2ccco2)c1C(=O)Nc1cc(Cl)ccc1Cl | 4.4 | IC50 (FFLUC_HILL_SLOPE 2.13, FFLUC_R_SQUARED 0.528, HEPG2TOX_HILL_SLOPE 16.1, HEPG2TOX_R_SQUARED 0.784, PBLUC_HILL_SLOPE 2.08, PBLUC_R_SQUARED 0.686, read-out: LUCIFERASE INFECTION ASSAY - IC50): 1.53 µM
30 | Nc1cc(Cl)c(-n2cccc2)cc1Oc1ccc(Cl)cc1 | > 10.3 | IC50 (FFLUC_HILL_SLOPE 2.28, FFLUC_R_SQUARED 0.58, read-out: LUCIFERASE INFECTION ASSAY - IC50): > 10.3 µM
31 | O=C1C=CC(=O)N1c1ccc(F)c(Cl)c1 | > 14.6 | IC50 (FFLUC_HILL_SLOPE 2.09, FFLUC_R_SQUARED 0.475, HEPG2TOX_HILL_SLOPE 6.94, HEPG2TOX_R_SQUARED 0.217, PBLUC_HILL_SLOPE 8.9, PBLUC_R_SQUARED 0.496, read-out: LUCIFERASE INFECTION ASSAY - IC50): 13.6 µM
